# Where two headings read alike, the source gives them in different places.
# Tests used:
# [1] = tested on: A. baumannii A387; assay: Preliminary MBC without and with sub-inhibitory polymyxin B (Example 4); assay type: cell-based, Acinetobacter baumannii; conditions: Acinetobacter baumannii, A387, read-out: MBC +0.06 μg/ml PB, A. baumannii A387, +0.06 μg/ml polymyxin B, 1st experiment
# [2] = tested on: A. baumannii A472; assay: as above; assay type: cell-based, Acinetobacter baumannii; conditions: Acinetobacter baumannii, A472, read-out: MBC +[…] PB, A. baumannii A472; +[…] polymyxin B; preliminary MBC; 1st experiment
# [3] = tested on: A. baumannii J2; assay: as above; assay type: cell-based, Acinetobacter baumannii; conditions: Acinetobacter baumannii, J2, read-out: MBC +[…] PB, A. baumannii J2; +[…] polymyxin B; preliminary MBC; 1st experiment
# [4] = tested on: A. baumannii A472; assay: MIC without and with sub-inhibitory polymyxin B (Example 4); assay type: cell-based, Acinetobacter baumannii; conditions: 1st experiment
# [5] = tested on: A. baumannii A390; assay: as above; assay type: cell-based, Acinetobacter baumannii; conditions: +0.06 μg/ml PB, 2nd experiment
# [6] = tested on: strains of A. baumannii and one strain of Acinetobacter sp.; assay: MIC with sub-inhibitory concentrations (0.25x MIC) of polymyxin B, panel of Acinetobacter strains (Example 4); assay type: cell-based
# [7] = tested on: A. baumannii A14; assay: MIC without and with sub-inhibitory polymyxin B (Example 4); assay type: cell-based, Acinetobacter baumannii; conditions: 2nd experiment
# [8] = tested on: A. baumannii A473; assay: as above; assay type: cell-based, Acinetobacter baumannii; conditions: +0.06 μg/ml PB, 2nd experiment
# [9] = tested on: A. baumannii ATCC 19606; assay: as above; assay type: cell-based, Acinetobacter baumannii; conditions: for MIC without PB/MIC + PB: A. baumannii ATCC 19606; for MIC: Acinetobacter baumannii
# [10] = tested on: A. baumannii NCTC 13301; assay: as above; assay type: cell-based, Acinetobacter baumannii; conditions: A. baumannii NCTC 13301; +[…] PB; 2nd experiment
# [11] = tested on: A. baumannii A387; assay: as above; assay type: cell-based, Acinetobacter baumannii
# [12] = tested on: A. baumannii NCTC 13301; assay: as above; assay type: cell-based, Acinetobacter baumannii
# [13] = tested on: A. baumannii A390; assay: Preliminary MBC without and with sub-inhibitory polymyxin B (Example 4); assay type: cell-based, Acinetobacter baumannii; conditions: Acinetobacter baumannii, A390, A. baumannii A390, +0.06 μg/ml PB, 2nd experiment, read-out: MBC
# Procedure, shortened: (§1)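 Bactericidal endpoint scored visually on plates incubated at 37° C (18-20 hours): the lowest concentration where growth fell about 90% versus the positive control, generally leaving one colony or none.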
# [14] = tested on: A. baumannii A473; assay: as above; assay type: cell-based, Acinetobacter baumannii; conditions: Acinetobacter baumannii, A473, A. baumannii A473, +0.06 μg/ml PB, 2nd experiment, read-out: MBC
# Procedure, shortened: as §1
# [15] = tested on: A. baumannii A14; assay: as above; assay type: cell-based, Acinetobacter baumannii; conditions: 2nd experiment
# Procedure, shortened: as §1
# [16] = tested on: A. baumannii NCTC 13301; assay: as above; assay type: cell-based, Acinetobacter baumannii; conditions: Acinetobacter baumannii, NCTC13301, read-out: MBC +[…] PB
# Procedure, shortened: as §1
# [17] = tested on: A. baumannii A489; assay: MIC without and with sub-inhibitory polymyxin B (Example 4); assay type: cell-based, Acinetobacter baumannii; conditions: for MIC without PB/MIC + PB: A. baumannii A489; for MIC: Acinetobacter baumannii
# [18] = tested on: A. baumannii A401; assay: Preliminary MBC without and with sub-inhibitory polymyxin B (Example 4); assay type: cell-based, Acinetobacter baumannii; conditions: Acinetobacter baumannii
# [19] = tested on: A. baumannii A401; assay: MIC without and with sub-inhibitory polymyxin B (Example 4); assay type: cell-based, Acinetobacter baumannii; conditions: for MIC: Acinetobacter baumannii
# [20] = tested on: A. baumannii A329; assay: as above; assay type: cell-based, Acinetobacter baumannii; conditions: A. baumannii A329; +0.06 μg/ml PB; 2nd experiment
# [21] = tested on: A. baumannii A14; assay: as above; assay type: cell-based, Acinetobacter baumannii; conditions: 1st experiment
# [22] = tested on: A. baumannii J2; assay: as above; assay type: cell-based, Acinetobacter baumannii; conditions: for MIC without PB/MIC + PB: A. baumannii J2
# [23] = tested on: A. baumannii A329; assay: Preliminary MBC without and with sub-inhibitory polymyxin B (Example 4); assay type: cell-based, Acinetobacter baumannii; conditions: Acinetobacter baumannii, A329, A. baumannii A329, +0.06 μg/ml PB, 2nd experiment, read-out: MBC
# [24] = tested on: Acinetobacter sp. (H064200250); assay: MIC without and with sub-inhibitory polymyxin B (Example 4); assay type: cell-based; conditions: for MIC: Acinetobacter
# [25] = A. baumannii A14, +0.06 μg/ml PB
compound,measurement,setting,value
"Cc1c(-c2ccc(CN)cc2)ccn2c(=O)c(C(=O)O)cc(C3CC3)c12 [Compound 5, 8-(4-aminomethyl-phenyl)-1-cyclopropyl-9-methyl-4-oxo-quinolizine-3-carboxylic acid]",MBC,[1],0.25 µg/mL
same,MBC,[2],1 µg/mL
same,MBC,[3],0.5 µg/mL
same,MIC without PB/MIC + PB,"[4]; A. baumannii A472, ratio, PB […]",8
same,MIC,"[4]; Acinetobacter baumannii, A472, read-out: MIC +[…] PB, A. baumannii A472, +[…] polymyxin B",1 µg/mL
same,MIC without PB/MIC + PB,[5]; A. baumannii A390,4
same,MIC,"[5]; Acinetobacter baumannii, A390, A. baumannii A390, read-out: MIC",2 µg/mL
same,"Range ratios MIC without PB/MIC with PB Oct. 1, 2008 n = 8",[6]; 1st experiment,8-16
same,"MIC range with PB (0.25x MIC) Oct. 1, 2008 n = 8","[6]; 1st experiment, […] polymyxin B, ATCC 19606, A329, A390 and A473 not taken",0.25 to 4 µg/mL
same,"Range ratios MIC without PB/MIC with PB Oct. 14, 2008 n = 11",[6]; 2nd experiment,4-32
same,"MIC range with PB (0.25x MIC) Oct. 14, 2008 n = 11","[6]; 2nd experiment, 0.06 μg/ml polymyxin B, all strains except the ATCC strain",0.25 to 8 µg/mL
same,MIC,[7]; [25],4 µg/mL
same,MIC without PB/MIC + PB,[7]; [25],4
same,MIC,"[7]; Acinetobacter baumannii, A14, A. baumannii A14, without PB, read-out: MIC",16 µg/mL
same,MIC without PB/MIC + PB,[8]; A. baumannii A473,8
same,MIC,"[8]; Acinetobacter baumannii, A473, A. baumannii A473, read-out: MIC",1 µg/mL
same,MIC without PB/MIC + PB,"[9]; +0.06 μg/ml PB, 2nd experiment",8
same,MIC without PB/MIC + PB,"[9]; ratio, PB 0.06 μg/ml, 1st experiment",4
same,MIC,"[9]; ATCC19606, A. baumannii ATCC 19606, +0.06 μg/ml PB, 2nd experiment, read-out: MIC",0.06 µg/mL
same,MIC,"[9]; ATCC19606, read-out: MIC +0.06 μg/ml PB, A. baumannii ATCC 19606, +0.06 μg/ml polymyxin B, 1st experiment",0.06 µg/mL
same,MIC without PB/MIC + PB,[10],8
same,MIC without PB/MIC + PB,"[11]; A. baumannii A387, +0.06 μg/ml PB, 2nd experiment",4
same,MIC +0.06 μg/ml PB,"[11]; A. baumannii A387, +0.06 μg/ml polymyxin B, 1st experiment",0.25 µg/mL
same,MIC without PB/MIC + PB,"[11]; A. baumannii A387, ratio, PB 0.06 μg/ml, 1st experiment",8
same,MIC,"[11]; Acinetobacter baumannii, A387, A. baumannii A387, +0.06 μg/ml PB, 2nd experiment, read-out: MIC",1 µg/mL
same,MIC without PB/MIC + PB,"[12]; A. baumannii NCTC 13301, ratio, PB […], 1st experiment",16
same,MIC,"[12]; Acinetobacter baumannii, NCTC13301, read-out: MIC +[…] PB",1 µg/mL
same,MBC,[13],2 µg/mL
same,MBC,[14],1 µg/mL
same,MBC,[15]; [25],4 µg/mL
same,MBC,"[15]; Acinetobacter baumannii, A14, A. baumannii A14, without PB, read-out: MBC",16 µg/mL
same,MBC,[16],1 µg/mL
same,MIC without PB/MIC + PB,"[17]; +[…] PB, 2nd experiment",16
same,MIC without PB/MIC + PB,"[17]; ratio, PB […], 1st experiment",8
same,MIC,"[17]; A489, A. baumannii A489, +[…] PB, 2nd experiment, read-out: MIC",0.5 µg/mL
same,MIC,"[17]; A489, read-out: MIC +[…] PB, A. baumannii A489, +[…] polymyxin B, 1st experiment",0.5 µg/mL
same,MBC,"[18]; A401, A baumannii A 401, +0.06 μg/ml PB, 2nd experiment, read-out: MBC",4 µg/mL
same,MBC,"[18]; A401, read-out: MBC +0.06 μg/ml PB, A baumannii A 401, +0.06 μg/ml polymyxin B, 1st experiment",2 µg/mL
same,MIC without PB/MIC + PB,"[19]; A baumannii A 401, ratio, PB 0.06 μg/ml, 1st experiment",8
same,MIC,"[19]; A401, A baumannii A 401, +0.06 μg/ml PB, 2nd experiment, read-out: MIC",4 µg/mL
same,MIC,"[19]; A401, read-out: MIC +0.06 μg/ml PB, A baumannii A 401, +0.06 μg/ml polymyxin B, 1st experiment",2 µg/mL
same,MIC without PB/MIC + PB,[20],1
same,MIC +0.06 μg/ml PB,[21]; +0.06 μg/ml polymyxin B,4 µg/mL
same,MIC without PB/MIC + PB,"[21]; ratio, PB 0.06 μg/ml",8
same,MIC without PB/MIC + PB,"[22]; +[…] PB, 2nd experiment",8
same,MIC without PB/MIC + PB,"[22]; ratio, PB […], 1st experiment",16
same,MIC,"[22]; Acinetobacter baumannii, J2, read-out: MIC +[…] PB, A. baumannii J2, +[…] polymyxin B, 1st experiment",0.5 µg/mL
same,MBC,[23],8 µg/mL
same,MIC,[24],4 µg/mL
same,MIC without PB/MIC + PB,"[24]; Acinetobacter spp. H064200250 (OXA51), +[…] PB, 2nd experiment",4
same,MIC without PB/MIC + PB,"[24]; Acinetobacter spp. H064200250, ratio, PB […], 1st experiment",16
same,MIC,"[24]; read-out: MIC +[…] PB, Acinetobacter spp. H064200250, +[…] polymyxin B, 1st experiment",1 µg/mL

# — patent publication US20190105367A1, “ANTIMICROBIAL 4-OXOQUINOLIZINES” (Emergent Product Development Gaithersburg Inc., priority 2011, published 2019)
